Data on three molecules can be found in patent EP2440567B1, “SUBSTITUTED 16,17-ANNELLATED STEROID COMPOUNDS FOR USE IN WOMEN'S HEALTHCARE” (priority 2009, dated 2010).

One data set has as its system ovulation. Description: Ovulation inhibition in intact cycling female rats. It counts as in vivo.
The subject of data set [1] is circulating levels of LH and FSH. Description: 4-week multiple dose study in ovariectomized female rats. It counts as in vivo, rat.
The test system of a further data set is endometrium. As to the kind of experiment: 4-week phase I study, endometrial biopsies histopathology. Conditions: female human volunteers; biopsies on day 29; exposure via oral 10 mg daily Org 41621. It counts as in vivo.
The next data set relates to bone. As to the kind of experiment: AOST BMD (bone mineral density). It counts as in vivo.
For the next data set, the system named is vaginal tissue. As to the kind of experiment: Allen-Doisy test. It counts as in vivo.
In another data set the test system is pregnant rats. As to the kind of experiment: Embryofetal toxicity study in pregnant rats. It counts as in vivo, rat.
Data set [2] relates to estrogen receptors in the CNS. As to the kind of experiment: Lordosis model (facilitation of female sexual behaviour). It counts as in vivo.

Molecules are shown by their SMILES.

As to `CCC[C@@H]1Cc2cc(O)ccc2[C@H]2CC[C@@]3(C)[C@@H](C[C@H]4CCC(=O)C[C@]43O)[C@H]12` [Compound 10, (7α,16β,17α)-3,17-dihydroxy-7-propyl-16,24-cyclo-19,21-dinorchola-1,3,5(10)-trien-22-one], the “Ovulation Inhibition (rat) MAD p.o.” value with ovulation is given as 0.10 mg/kg.day. Further, the “suppression of circulating levels of LH and FSH” value in data set [1] (4-week multiple dose, oral and subcutaneous application in gelatine/mannitol) is “effectively suppress”. For the same molecule, in data set [1] (same series of studies), the “behaviour on vaginal tissue, cholesterol metabolism and bone (bone mineral density, circulating osteocalcin)” value was “behaves as an estrogen receptor agonist”. In addition, in the data set on endometrium, the “Histopathology scores of endometrial biopsies” value is “mostly atrophic or inactive endometrium with some subjects showing conversion to secretory (P-type) endometrium” and the “signs of hyperplasia (endometrium)” value is recorded as “no signs of hyperplasia”. Also, the “AOST BMD (rat) MAD p.o.” value in the data set on bone was 0.12 mg/kg.day. Also, the “Allen-Doisy (rat) MAD p.o.” value in the data set on vaginal tissue is given as 0.15 mg/kg.day. Further, the “minor defects, incidence of wavy ribs” value in the data set with pregnant rats (pregnant rats, oral gavage, 0.1 mg/kg) is listed as 4/153. Further, in the data set with pregnant rats (pregnant rats, oral gavage, 0.1 mg/kg/day up to and including 10 mg/kg/day), the “body weight gain of the dams” value is reported as “significant reduction in body weight gain”. The “effects (fetal defects)” value with pregnant rats (pregnant rats, oral gavage, 0.3 mg/kg, based on a total of 13 fetuses) is “No effects”. Further, the “major defects (fetuses)” value in the data set on pregnant rats (pregnant rats, oral gavage, treated groups) was “No major defects”. Further, the “teratogenicity in the rat” value with pregnant rats (preliminary embryofetal development study, up to a dose of 0.3 mg/kg) is given as “no evidence of teratogenicity”. In data set [2], the “Lordosis (rat) MAD p.o.” value is reported as 0.14 mg/kg.day.

As to `C#C[C@]1(O)CC[C@H]2[C@@H]3CCc4cc(O)ccc4[C@H]3CC[C@@]21C` [EE, Ethynyl-Estradiol, reference compound], the “Ovulation Inhibition (rat) MAD p.o.” value in the data set with ovulation stood at 0.022 mg/kg.day. For the same molecule, in the data set with bone, the “AOST BMD (rat) MAD p.o.” value was determined as 0.020 mg/kg.day. In addition, the “Allen-Doisy (rat) MAD p.o.” value in the data set with vaginal tissue is reported as 0.016 mg/kg.day. Further, the “Lordosis (rat) MAD p.o.” value in data set [2] is recorded as 0.035 mg/kg.day.

On to `CCC[C@@H]1Cc2cc(O)ccc2[C@H]2CC[C@@]3(C)[C@@H](C[C@H]4CC[C@H](O)C[C@]43O)[C@H]12` [Org 41621, (7α,16β,17α,22β)-7-propyl-16,24-cyclo-19,21-dinorchola-1,3,5(10)-triene-3,17,22-triol, reference compound], for which the “major fetal abnormalities (ribs, humerus and scapula)” value in the data set with pregnant rats (pregnant rats, oral gavage, 0.09 mg/kg) is listed as 3/273; in the data set on pregnant rats (pregnant rats, oral gavage, 0.15 mg/kg), 11/216.
